Assay results: patent publication US12441718B2, “Selective angiotensin II compounds” (VICORE PHARMA AB, priority 2021, dated 2025)
“And” between values parts separate entries of the source, which are not always exact repeats. Equal entries are not always repeated. Where two headings read alike, the source gives them in different places.

Assays:
CYP1A2 = biological target: T1, CYP1A2 (Homo sapiens, UniProt P05177); assay: in vitro; type: in vitro ADME; conditions: human liver microsomes, substrate phenacetin; for inhibition at 10 µM: human, microsomes, read-out: CYP1A2 Inh %
T1 construct: isoform-specific substrates incubated with human liver microsomes; tissue Eurofins ITEMG232 (protocol number); host or cells: human liver microsomes
T1 sequence (P05177 whole entry, canonical isoform): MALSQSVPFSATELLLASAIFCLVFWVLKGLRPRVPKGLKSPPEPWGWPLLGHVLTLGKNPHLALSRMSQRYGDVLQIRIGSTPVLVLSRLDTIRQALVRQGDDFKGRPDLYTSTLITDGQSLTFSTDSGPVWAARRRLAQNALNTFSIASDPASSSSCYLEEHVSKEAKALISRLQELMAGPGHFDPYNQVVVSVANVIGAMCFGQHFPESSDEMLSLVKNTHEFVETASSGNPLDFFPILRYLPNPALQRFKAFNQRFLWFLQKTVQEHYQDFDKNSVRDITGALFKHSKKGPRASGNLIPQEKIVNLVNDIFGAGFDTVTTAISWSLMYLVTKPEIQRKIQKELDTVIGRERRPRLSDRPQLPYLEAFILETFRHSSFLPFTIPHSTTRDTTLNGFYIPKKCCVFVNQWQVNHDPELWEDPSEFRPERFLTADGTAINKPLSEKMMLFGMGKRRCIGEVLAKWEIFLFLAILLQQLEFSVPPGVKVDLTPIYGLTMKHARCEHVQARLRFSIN
Method: The following substrates were used; CYP1A phenacetin, CYP2B36 bupropion, CYP2C8 paclitaxel and amodiaquine, CYP2C9 diclofenac, CYP2C19 omeprazole, CYP2D6 dextromethorphan, CYP3A midazolam and testosterone.
At the end of the incubation, the formation of metabolite was monitored by HPLC-MS/MS as the peak area response.

CYP2C9 = CYP2C9 (Homo sapiens, UniProt P11712); assay: CYP inhibition in human liver microsomes (Eurofins ITEMG232); type: in vitro ADME; parameters: isoform-specific substrates incubated with human liver microsomes; tissue Eurofins ITEMG232 (protocol number); host or cells: human liver microsomes; conditions: substrate diclofenac; for inhibition at 10 µM: human, probe diclofenac, read-out: CYP2C9 Inh %
CYP2C9, sequence (P11712 whole entry, canonical isoform): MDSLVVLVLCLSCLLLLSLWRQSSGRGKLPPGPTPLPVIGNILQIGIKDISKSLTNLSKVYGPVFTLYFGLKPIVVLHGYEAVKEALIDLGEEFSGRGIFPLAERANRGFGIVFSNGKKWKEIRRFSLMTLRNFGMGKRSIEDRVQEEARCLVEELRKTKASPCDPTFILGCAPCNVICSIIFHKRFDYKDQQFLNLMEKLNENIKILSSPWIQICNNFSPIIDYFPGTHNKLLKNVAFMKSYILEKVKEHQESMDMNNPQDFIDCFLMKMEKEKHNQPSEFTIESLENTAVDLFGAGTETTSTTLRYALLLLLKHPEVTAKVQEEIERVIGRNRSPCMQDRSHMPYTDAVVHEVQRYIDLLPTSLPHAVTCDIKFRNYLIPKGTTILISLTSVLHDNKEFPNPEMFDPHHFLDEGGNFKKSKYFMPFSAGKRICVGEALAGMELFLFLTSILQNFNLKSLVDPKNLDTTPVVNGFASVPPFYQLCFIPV

CYP2B6 = biological target: T2, CYP2B6 (Homo sapiens, UniProt P20813); assay: as above; type: in vitro ADME; conditions: probe bupropion, substrate bupropion, read-out: CYP2B6 Inh %
T2 construct: isoform-specific substrates incubated with human liver microsomes; tissue Eurofins ITEMG232 (protocol number); host or cells: human liver microsomes
T2 sequence (P20813 1-491): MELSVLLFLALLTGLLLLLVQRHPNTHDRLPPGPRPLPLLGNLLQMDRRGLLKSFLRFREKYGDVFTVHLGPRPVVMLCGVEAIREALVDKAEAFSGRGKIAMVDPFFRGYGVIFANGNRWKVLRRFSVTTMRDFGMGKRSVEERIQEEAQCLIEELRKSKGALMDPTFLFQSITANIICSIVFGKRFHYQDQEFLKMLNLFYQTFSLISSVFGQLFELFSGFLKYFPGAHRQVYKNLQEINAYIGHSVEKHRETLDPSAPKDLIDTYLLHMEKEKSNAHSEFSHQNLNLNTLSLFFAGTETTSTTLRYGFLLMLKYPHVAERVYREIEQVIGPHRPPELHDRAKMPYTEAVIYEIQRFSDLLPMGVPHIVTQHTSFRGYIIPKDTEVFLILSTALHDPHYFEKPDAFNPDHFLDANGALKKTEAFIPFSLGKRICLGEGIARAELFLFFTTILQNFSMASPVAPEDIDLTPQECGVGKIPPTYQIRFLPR

CYP3A4&5 = assay: in vitro; conditions: human, human liver microsomes, probe testosterone;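 also: Read-out is the metabolite generated from the probe substrate, quantified as HPLC-MS/MS peak area once incubation ends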
CYP2C8 = biological target: T3, CYP2C8 (Homo sapiens, UniProt P10632); assay: CYP inhibition in human liver microsomes (Eurofins ITEMG232); type: in vitro ADME; conditions: substrate paclitaxel and amodiaquine; for inhibition at 10 µM: human, probe paclitaxel and amodiaquine, read-out: CYP2C8 Inh %
T3 construct: isoform-specific substrates incubated with human liver microsomes; tissue Eurofins ITEMG232 (protocol number); host or cells: human liver microsomes
T3 sequence (P10632 1-490): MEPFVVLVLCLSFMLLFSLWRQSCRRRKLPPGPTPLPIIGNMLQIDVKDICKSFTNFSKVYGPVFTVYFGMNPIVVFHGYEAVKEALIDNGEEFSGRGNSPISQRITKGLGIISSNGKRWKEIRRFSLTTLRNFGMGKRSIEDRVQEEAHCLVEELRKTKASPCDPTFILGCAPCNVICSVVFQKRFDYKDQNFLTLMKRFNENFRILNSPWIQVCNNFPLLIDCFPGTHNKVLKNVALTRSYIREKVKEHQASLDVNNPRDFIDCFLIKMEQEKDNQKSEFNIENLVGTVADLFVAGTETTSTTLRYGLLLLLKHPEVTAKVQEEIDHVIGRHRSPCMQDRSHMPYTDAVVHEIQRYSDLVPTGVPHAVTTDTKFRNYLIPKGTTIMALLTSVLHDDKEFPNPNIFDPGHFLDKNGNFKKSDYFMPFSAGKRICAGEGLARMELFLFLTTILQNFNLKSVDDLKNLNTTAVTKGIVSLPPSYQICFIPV

CYP2D6 = biological target: T4, CYP2D6 (Homo sapiens, UniProt P10635); assay: as above; type: in vitro ADME; conditions: probe dextromethorphan, substrate dextromethorphan, read-out: CYP2D6 Inh %
T4 construct: isoform-specific substrates incubated with human liver microsomes; tissue Eurofins ITEMG232 (protocol number); host or cells: human liver microsomes
T4 sequence (P10635 whole entry, canonical isoform): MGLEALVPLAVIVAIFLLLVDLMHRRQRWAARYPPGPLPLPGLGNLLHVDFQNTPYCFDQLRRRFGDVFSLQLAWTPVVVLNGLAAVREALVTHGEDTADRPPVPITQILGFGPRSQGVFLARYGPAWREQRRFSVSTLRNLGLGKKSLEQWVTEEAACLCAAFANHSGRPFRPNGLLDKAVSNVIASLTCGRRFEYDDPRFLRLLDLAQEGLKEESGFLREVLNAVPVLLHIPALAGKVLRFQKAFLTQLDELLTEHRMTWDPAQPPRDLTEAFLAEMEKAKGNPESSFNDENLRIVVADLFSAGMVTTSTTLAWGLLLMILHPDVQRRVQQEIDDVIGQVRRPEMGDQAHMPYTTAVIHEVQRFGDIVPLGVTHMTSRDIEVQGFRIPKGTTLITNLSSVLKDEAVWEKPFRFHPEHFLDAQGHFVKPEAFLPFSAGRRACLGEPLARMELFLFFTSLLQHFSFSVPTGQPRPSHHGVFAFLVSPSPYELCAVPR

[1] = biological target: T5, human recombinant AT2 receptor (Homo sapiens, UniProt P50052); assay: Binding to AT2 receptor, radiometric scintillation assay (Eurofins ITEM26); conditions: ligand 125I CGP 42112A, * rows = mean of runs; for Ki: seven-point dose-response curve; for IC50: test compounds at 1, 10, 100 and 1000 nM, read-out: AT2 GraFit IC50
T5 construct: purchased Eurofins ITEM26 (protocol number)
T5 sequence (P50052 1-363): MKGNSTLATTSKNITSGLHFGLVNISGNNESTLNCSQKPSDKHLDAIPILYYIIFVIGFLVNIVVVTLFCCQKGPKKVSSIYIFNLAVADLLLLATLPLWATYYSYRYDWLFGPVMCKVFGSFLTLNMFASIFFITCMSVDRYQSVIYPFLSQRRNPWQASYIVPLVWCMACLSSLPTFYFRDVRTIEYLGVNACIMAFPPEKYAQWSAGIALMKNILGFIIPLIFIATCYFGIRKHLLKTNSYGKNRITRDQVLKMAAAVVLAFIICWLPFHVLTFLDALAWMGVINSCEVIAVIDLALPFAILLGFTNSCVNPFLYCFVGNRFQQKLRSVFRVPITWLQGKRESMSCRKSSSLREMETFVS

[2] = Metabolic stability in pooled human liver microsomes; type: in vitro ADME; conditions: human, pooled human liver microsomes, pooled human liver microsomes 0.5 mg/mL, 1 μM test compound, 37° C., * rows = mean of two runs
Method: Pooled human liver microsomes in PBS at a concentration of 0.5 mg/mL was incubated with or without 1 mM NADPH for 70 min at 37° C. Test compound was added after 10 minutes to a final concentration of 1 μM. Samples were withdrawn at 0, 5, 15 and 60 minutes and added to test tubes containing acetonitrile, to stop the reaction, and with terfenadine, used as internal standard. After centrifugation at 10 000×g for 5 minutes the supernatant was diluted 1:1 with 1% formic acid. Samples were separated on a reverse phase column and detected by triple quadrupole MSMS (Agilant model 6540). The concentration of the parent compound at the different time points was measured with an external standard curve using terfenadine as internal standard and the initial metabolic rate in the presence or absence of NADPH calculated.

CYP2C19 = biological target: T6, CYP2C19 (Homo sapiens, UniProt P33261); assay: CYP inhibition in human liver microsomes (Eurofins ITEMG232); type: in vitro ADME; conditions: substrate omeprazole; for inhibition at 10 µM: human, probe omeprazole, read-out: CYP2C19 Inh %
T6 construct: isoform-specific substrates incubated with human liver microsomes; tissue Eurofins ITEMG232 (protocol number); host or cells: human liver microsomes
T6 sequence (P33261 whole entry, canonical isoform): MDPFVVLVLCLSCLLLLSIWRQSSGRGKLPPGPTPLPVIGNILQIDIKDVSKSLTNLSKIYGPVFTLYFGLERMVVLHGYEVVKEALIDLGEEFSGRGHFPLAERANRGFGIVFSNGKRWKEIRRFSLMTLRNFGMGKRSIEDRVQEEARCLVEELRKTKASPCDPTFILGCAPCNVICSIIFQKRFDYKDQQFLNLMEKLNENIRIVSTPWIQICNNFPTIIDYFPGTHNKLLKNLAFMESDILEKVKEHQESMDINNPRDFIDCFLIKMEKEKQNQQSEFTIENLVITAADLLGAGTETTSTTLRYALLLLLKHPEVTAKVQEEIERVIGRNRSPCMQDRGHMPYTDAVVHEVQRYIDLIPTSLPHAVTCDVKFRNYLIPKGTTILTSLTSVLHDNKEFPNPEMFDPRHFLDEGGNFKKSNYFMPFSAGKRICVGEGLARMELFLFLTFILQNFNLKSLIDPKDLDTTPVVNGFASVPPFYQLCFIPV

CYP3A4 = CYP3A4 (Homo sapiens, UniProt P08684); assay: CYP inhibition in human liver microsomes (Eurofins ITEMG232), midazolam substrate; type: in vitro ADME; parameters: isoform-specific substrates incubated with human liver microsomes; tissue Eurofins ITEMG232 (protocol number); host or cells: human liver microsomes; conditions: for inhibition at 10 µM: human, probe midazolam, read-out: CYP3A4 midazolam Inh %
CYP3A4, sequence (P08684 whole entry, canonical isoform): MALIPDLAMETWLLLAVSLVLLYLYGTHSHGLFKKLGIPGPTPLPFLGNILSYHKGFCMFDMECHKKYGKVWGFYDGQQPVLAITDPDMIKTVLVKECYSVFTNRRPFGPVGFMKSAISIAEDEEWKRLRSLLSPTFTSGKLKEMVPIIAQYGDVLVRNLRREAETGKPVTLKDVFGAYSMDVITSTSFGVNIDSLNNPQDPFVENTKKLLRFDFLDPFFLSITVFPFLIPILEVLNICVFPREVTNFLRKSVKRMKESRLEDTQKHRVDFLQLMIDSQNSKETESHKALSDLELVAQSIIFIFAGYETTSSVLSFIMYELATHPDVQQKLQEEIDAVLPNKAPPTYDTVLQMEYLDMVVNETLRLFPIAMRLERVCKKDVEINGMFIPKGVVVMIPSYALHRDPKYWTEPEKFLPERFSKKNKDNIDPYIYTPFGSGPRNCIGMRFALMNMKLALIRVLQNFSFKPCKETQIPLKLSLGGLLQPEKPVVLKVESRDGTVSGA

[3] = with 1 mM NADPH, read-out: T1/2, + NaDPH
[4] = without NADPH, read-out: T1/2, no NaDPH

inhibition at 10 µM (CYP1A2) [%]	inhibition at 10 µM (CYP2C9) [%]	inhibition at 10 µM (CYP2B6) [%]	inhibition at 10 µM (CYP3A4&5) [%]	inhibition at 10 µM (CYP2C8) [%]	inhibition at 10 µM (CYP2D6) [%]	Ki [1] [nM]	IC50 [1] [nM]	half-life at 1 μM [2, 3] [h]	half-life at 1 μM [2, 4] [h]	inhibition at 10 µM (CYP2C19) [%]	inhibition at 10 µM (CYP3A4) [%]	CYP1A2 Inh % (CYP1A2; 10 μM)	CYP2C9 Inh % (CYP2C9; 10 μM)	CYP2C8 Inh % (CYP2C8; 10 μM)	CYP2C19 Inh % (CYP2C19; 10 μM)	CYP3A4 midazolam Inh % (CYP3A4; 10 μM)	Structure (SMILES)
85.4	60.5	19.5	18.2	87.8	14.1	2.12	4.2	> 1	> 1	37.2	41.7	–	–	–	–	–	CC(C)Cc1ccc(S(=O)(=O)Nc2ncc(Br)cn2)c(-c2ccc(Cn3ccnc3C(C)(C)C)cc2)c1 [Example 1, N-(5-Bromopyrimidin-2-yl)-4′-((2-(tert-butyl)-1H-imidazol-1-yl)methyl)-5-isobutyl-[1,1′-biphenyl]-2-sulfonamide]
-5.4	80.7	19.4	57.3	40	11.9	75	150	0.1	> 1	65.8	65.1	–	–	–	–	–	COc1ncnc(OC)c1NS(=O)(=O)c1ccc(CC(C)C)cc1-c1ccc(Cn2ccnc2C(C)(C)C)c(F)c1 [Example 25, 4′-((2-(tert-Butyl)-1H-imidazol-1-yl)methyl)-N-(4,6-dimethoxypyrimidin-5-yl)-3′-fluoro-5-isobutyl-[1,1′-biphenyl]-2-sulfonamide]
–	–	–	–	–	–	–	–	–	–	–	–	36.2% and 65.6%	37.1% and 71.9%	49.2% and 95.6%	38.6% and 66.6%	28.2% and 48.5%	CC(C)Cc1ccc(S(=O)(=O)Nc2ncc(C#N)cn2)c(-c2ccc(Cn3ccnc3C(C)(C)C)cc2)c1 [Example 6, 4′-((2-(tert-Butyl)-1H-imidazol-1-yl)methyl)-N-(5-cyanopyrimidin-2-yl)-5-isobutyl-[1,1′-biphenyl]-2-sulfonamide]
33	30	14	67	43	9	–	–	> 1	> 1	64	35	–	–	–	–	–	Cc1nccn1Cc1ccc(-c2cc(CC(C)C)sc2S(=O)(=O)Nc2ncccn2)cc1F [Example 44, 3-(3-Fluoro-4-((2-methyl-1H-imidazol-1-yl)methyl)phenyl)-5-isobutyl-N-(pyrimidin-2-yl)thiophene-2-sulfonamide]
54	20	16	62	64	13	–	–	> 1	> 1	65	15	–	–	–	–	–	CCc1nccn1Cc1ccc(-c2cc(CC(C)C)sc2S(=O)(=O)Nc2ncccn2)cc1F [Example 45, 3-(4-((2-Ethyl-1H-imidazol-1-yl)methyl)-3-fluorophenyl)-5-isobutyl-N-(pyrimidin-2-yl)thiophene-2-sulfonamide]
84	46	14	3.3	88.7	5.7	–	–	> 1	> 1	37	36	–	–	–	–	–	CC(C)Cc1ccc(S(=O)(=O)Nc2ncc(Cl)cn2)c(-c2ccc(Cn3ccnc3C(C)(C)C)cc2)c1 [Example 2, 4′-((2-(tert-Butyl)-1H-imidazol-1-yl)methyl)-N-(5-chloropyrimidin-2-yl)-5-isobutyl-[1,1′-biphenyl]-2-sulfonamide]
21.7	87.6	27.5	63	54.3	45.2	–	–	0.15	> 1	74.8	73	–	–	–	–	–	COc1ncnc(OC)c1NS(=O)(=O)c1ccc(CC(C)C)cc1-c1ccc(Cn2ccnc2C(C)(C)C)cc1 [Example 19, 4′-((2-(tert-Butyl)-1H-imidazol-1-yl)methyl)-N-(4,6-dimethoxypyrimidin-5-yl)-5-isobutyl-[1,1′-biphenyl]-2-sulfonamide]
19.2	72.9	56.5	56	92.1	44.5	–	–	0.717	> 1	70.1	-11.4	–	–	–	–	–	CC(C)Cc1ccc(S(=O)(=O)Nc2nccs2)c(-c2ccc(Cn3ccnc3C(C)(C)C)cc2)c1 [Example 5, 4′-((2-(tert-Butyl)-1H-imidazol-1-yl)methyl)-5-isobutyl-N-(thiazol-2-yl)-[1,1′-biphenyl]-2-sulfonamide]
9.7	90.8	40.4	97.9	59.7	16.4	–	–	0.117	> 1	87.8	98.4	–	–	–	–	–	COc1ncncc1NS(=O)(=O)c1ccc(CC(C)C)cc1-c1ccc(Cn2ccnc2C(C)(C)C)cc1 [Example 18, 4′-((2-(tert-Butyl)-1H-imidazol-1-yl)methyl)-5-isobutyl-N-(4-methoxypyrimidin-5-yl)-[1,1′-biphenyl]-2-sulfonamide]
